Assay results: PubChem BioAssay (NCI)
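Grown in 96-well plates, cells were treated for 48 hours with each compound at five concentrations. Insufficient inhibition: endpoint recorded as highest concentration tested. TGI: concentration producing complete growth inhibition.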

Assays:
Assay in all cases: NCI tumour cell line growth inhibition, 48 h
[1] = system: SF-268 CNS
[2] = system: SW-620 colon
[3] = system: UACC-62 melanoma
[4] = system: DLD-1 colon
[5] = system: COLO 205 colon
[6] = system: IGROV1 ovarian
[7] = system: M19-MEL melanoma
[8] = system: ACHN renal
[9] = system: HT29 colon
[10] = system: CCRF-CEM leukemia
[11] = system: MOLT-4 leukemia
[12] = system: RXF 393 renal
[13] = system: SK-MEL-28 melanoma
[14] = system: U251 CNS
[15] = system: HL-60(TB) leukemia
[16] = system: HCT-116 colon
[17] = system: SK-MEL-2 melanoma
[18] = system: SNB-19 CNS
[19] = system: KM12 colon
[20] = system: RXF-631 renal
[21] = system: HOP-18 NSCLC
[22] = system: KM20L2 colon
[23] = system: OVCAR-5 ovarian
[24] = system: A498 renal
[25] = system: LOX IMVI melanoma
[26] = system: SNB-75 CNS
[27] = system: SK-OV-3 ovarian
[28] = system: HOP-92 NSCLC
[29] = system: SNB-78 CNS
[30] = system: EKVX NSCLC
[31] = system: M14 melanoma
[32] = system: DMS 114 small cell lung
[33] = system: RPMI-8226 leukemia
[34] = system: OVCAR-8 ovarian
[35] = system: HCC-2998 colon
[36] = system: CAKI-1 renal
[37] = system: SF-539 CNS
[38] = system: A549 NSCLC
[39] = system: UO-31 renal
[40] = system: OVCAR-3 ovarian
[41] = system: DMS 273 small cell lung
[42] = system: NCI-H522 lung
[43] = system: HOP-62 NSCLC
[44] = system: LXFL 529 NSCLC
[45] = system: NCI-H23 lung
[46] = system: UACC-257 melanoma
[47] = system: SF-295 CNS
[48] = system: HCT-15 colon
[49] = system: 786-0 renal
[50] = system: K-562 leukemia
[51] = system: OVCAR-4 ovarian
[52] = system: NCI-H460 lung
[53] = system: SN12C renal
[54] = system: TK-10 renal
[55] = system: NCI-H226 lung
[56] = system: SR leukemia
[57] = system: SK-MEL-5 melanoma
[58] = system: XF 498 CNS
[59] = system: MALME-3M melanoma

## Nc1nc(CC2(O)CCCCC2)cc(-c2ccccc2)n1
[1]
  TGI: > 100 µM
[2]
  TGI: 65 µM
[3]
  TGI: > 100 µM
[4]
  TGI: > 100 µM
[5]
  TGI: 32.9 µM
[6]
  TGI: > 100 µM
[7]
  TGI: > 72.8 µM
[8]
  TGI: > 100 µM
[9]
  TGI: > 49.2 µM
[10]
  TGI: > 95.9 µM
[11]
  TGI: 53.9 µM
[12]
  TGI: > 57.5 µM
[13]
  TGI: > 100 µM
[14]
  TGI: > 100 µM
[15]
  TGI: 47.9 µM
[16]
  TGI: > 51 µM
[17]
  TGI: > 64.8 µM
[18]
  TGI: > 100 µM
[19]
  TGI: > 57 µM
[20]
  TGI: > 100 µM
[21]
  TGI: > 90 µM
[22]
  TGI: > 53.7 µM
[23]
  TGI: 54.4 µM
[24]
  TGI: > 73.3 µM
[25]
  TGI: > 55.5 µM
[26]
  TGI: 98.1 µM
[27]
  TGI: > 100 µM
[28]
  TGI: > 71.9 µM
[29]
  TGI: > 100 µM
[30]
  TGI: > 100 µM
[31]
  TGI: > 31.6 µM
[32]
  TGI: > 70.6 µM
[33]
  TGI: 78.6 µM
[34]
  TGI: > 84.7 µM
[35]
  TGI: > 81 µM
[36]
  TGI: > 100 µM
[37]
  TGI: > 100 µM
[38]
  TGI: > 72.4 µM
[39]
  TGI: > 91.6 µM
[40]
  TGI: > 63.6 µM
[41]
  TGI: > 66 µM
[42]
  TGI: > 100 µM
[43]
  TGI: > 80.6 µM
[44]
  TGI: > 100 µM
[45]
  TGI: > 66.4 µM
[46]
  TGI: > 78.1 µM
[47]
  TGI: > 77.3 µM
[48]
  TGI: > 75.5 µM
[49]
  TGI: 43.2 µM
[50]
  TGI: > 100 µM
[51]
  TGI: > 76.8 µM
[52]
  TGI: > 66 µM
[53]
  TGI: 37.4 µM
[54]
  TGI: > 100 µM
[55]
  TGI: > 61.9 µM
[56]
  TGI: 49.6 µM
[57]
  TGI: > 57.4 µM

## CC(C)(C)C1CCC(=O)C(C(O)CC2CC(=O)N(c3ccccc3)C(=O)C2)C1 (centres undefined)
[1]
  TGI: > 100 µM
[2]
  TGI: > 100 µM
[3]
  TGI: > 100 µM
[4]
  TGI: > 100 µM
[5]
  TGI: > 100 µM
[6]
  TGI: > 100 µM
[7]
  TGI: > 100 µM
[8]
  TGI: > 100 µM
[9]
  TGI: > 100 µM
[10]
  TGI: > 100 µM
[11]
  TGI: > 100 µM
[12]
  TGI: > 100 µM
[13]
  TGI: > 100 µM
[14]
  TGI: > 100 µM
[15]
  TGI: > 100 µM
[16]
  TGI: > 100 µM
[18]
  TGI: > 100 µM
[19]
  TGI: > 100 µM
[20]
  TGI: > 100 µM
[21]
  TGI: > 100 µM
[22]
  TGI: > 100 µM
[23]
  TGI: > 100 µM
[24]
  TGI: > 100 µM
[25]
  TGI: > 100 µM
[26]
  TGI: > 100 µM
[27]
  TGI: > 100 µM
[28]
  TGI: > 100 µM
[29]
  TGI: > 100 µM
[30]
  TGI: > 100 µM
[31]
  TGI: > 100 µM
[58]
  TGI: > 100 µM
[32]
  TGI: > 100 µM
[33]
  TGI: > 100 µM
[34]
  TGI: > 100 µM
[35]
  TGI: > 100 µM
[36]
  TGI: > 100 µM
[37]
  TGI: > 100 µM
[38]
  TGI: > 100 µM
[39]
  TGI: > 100 µM
[40]
  TGI: > 100 µM
[41]
  TGI: > 100 µM
[42]
  TGI: > 100 µM
[43]
  TGI: > 100 µM
[44]
  TGI: > 100 µM
[59]
  TGI: > 100 µM
[45]
  TGI: > 100 µM
[46]
  TGI: > 100 µM
[47]
  TGI: > 100 µM
[48]
  TGI: > 100 µM
[49]
  TGI: > 100 µM
[50]
  TGI: > 100 µM
[51]
  TGI: > 100 µM
[52]
  TGI: > 100 µM
[53]
  TGI: > 100 µM
[54]
  TGI: > 100 µM
[55]
  TGI: > 100 µM
[56]
  TGI: > 100 µM
